Key:
[1] = Stability in rat liver lysosomes (chapter C1c); format: in vitro ADME
[2] = biological target: T1, motor domain of the human kinesin spindle protein KSP/Eg5 (Homo sapiens, UniProt P52732); assay: Inhibition of the kinesin spindle protein KSP/Eg5 (ATPase activity, malachite green); format: biochemical; settings: 10 nM KSP/Eg5, microtubuli, 500 μM ATP, 2 h at RT
T1 construct: The motor domain of the human kinesin spindle protein KSP/Eg5; purchased tebu-bio/Cytoskeleton Inc 027EG01-XL
T1 sequence (P52732 18-359 limits assumed): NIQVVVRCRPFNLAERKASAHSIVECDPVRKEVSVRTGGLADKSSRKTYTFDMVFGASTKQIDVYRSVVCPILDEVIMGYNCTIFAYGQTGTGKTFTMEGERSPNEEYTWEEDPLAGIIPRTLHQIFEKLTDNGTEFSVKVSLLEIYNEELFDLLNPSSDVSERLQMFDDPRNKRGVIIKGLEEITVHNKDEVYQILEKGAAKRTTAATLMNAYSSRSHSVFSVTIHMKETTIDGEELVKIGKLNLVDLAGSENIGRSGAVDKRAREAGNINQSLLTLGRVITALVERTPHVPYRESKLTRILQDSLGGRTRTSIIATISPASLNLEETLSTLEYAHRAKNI
Procedure: The motor domain of the human kinesin spindle protein KSP/Eg5 (tebu-bio/Cytoskeleton Inc, No. 027EG01-XL) was incubated in a concentration of 10 nM with microtubuli (bovine or porcine, tebu-bio/Cytoskeleton Inc) stabilized with 50 μg/ml taxol (Sigma No. T7191-5MG) for 5 min at RT in 15 mM PIPES, pH 6.8 (5 mM MgCl2 and 10 mM DTT, Sigma). […] Incubation was at RT for 2 h. ATPase activity was detected by detecting the inorganic phosphate formed using malachite green (Biomol). […] The positive controls used were monastrol (Sigma, M8515-1 mg) and ispinesib (AdooQ Bioscience A10486). The individual data of the dose-activity curve are eight-fold determinations. The IC50 values are means of two independent experiments.

[3] = tested on: NCI-H292: human mucoepidermoid lung carcinoma cells; assay: MTT assay on NCI-H292; format: cell-based; settings: NCI-H292, 96 h, growth inhibition, 96 h incubation
Procedure: The analysis of the cytotoxic effects of the ADCs was carried out with various cell lines:
The cells were cultivated by the standard method as stated by the American Tissue Culture Collection (ATCC) or the Leibniz-lnstitut DSMZ-Deutsche Sammlung von Mikroorganismen und Zellkulturen GmbH (DSMZ) for the cell lines in question.
The cells were then incubated in an incubator at 37° C. and 5% carbon dioxide. […] To this end, the MTT reagent was incubated with the cells for 4 h, followed by lysis of the cells overnight by addition of the detergent. […] The measured data were used to calculate the ICo50 of the growth inhibition using the DRC (dose response curve). The proliferation of cells which were not treated with test substance but were otherwise identically treated was defined as the 100% figure.

SMILES: CNC(=O)[C@H](CCN(C(=O)CO)[C@@H](c1cc(-c2cc(F)ccc2F)cn1Cc1ccccc1)C(C)(C)C)NC(=O)[C@H](CC(N)=O)NC(=O)[C@@H](C)NC(=O)[C@H](C)NC(=O)Cc1ccncc1 [Example R3r-LDL, N-(Pyridin-4-ylacetyl)-L-alanyl-D-alanyl-N^1-[(2S)-4-[{(1R)-1-[1-benzyl-4-(2,5-difluorophenyl)-1H-pyrrol-2-yl]-2,2-dimethylpropyl}(glycoloyl)amino]-1-(methylamino)-1-oxobutan-2-yl]-L-aspartamide]
- stability in rat liver lysosomes (in words) [1]: high stability
- IC50 [2]: 264 nM
- IC50 [3]: 190 nM
